Experimental findings from patent publication US20040259875A1, “Amine derivatives” (priority 2001, published 2004) are described below.

The target of one series is T1, human VR1 (Homo sapiens, UniProt Q8NER1).
T1 construct: expressed in transfected cells
T1 sequence (Q8NER1 whole entry): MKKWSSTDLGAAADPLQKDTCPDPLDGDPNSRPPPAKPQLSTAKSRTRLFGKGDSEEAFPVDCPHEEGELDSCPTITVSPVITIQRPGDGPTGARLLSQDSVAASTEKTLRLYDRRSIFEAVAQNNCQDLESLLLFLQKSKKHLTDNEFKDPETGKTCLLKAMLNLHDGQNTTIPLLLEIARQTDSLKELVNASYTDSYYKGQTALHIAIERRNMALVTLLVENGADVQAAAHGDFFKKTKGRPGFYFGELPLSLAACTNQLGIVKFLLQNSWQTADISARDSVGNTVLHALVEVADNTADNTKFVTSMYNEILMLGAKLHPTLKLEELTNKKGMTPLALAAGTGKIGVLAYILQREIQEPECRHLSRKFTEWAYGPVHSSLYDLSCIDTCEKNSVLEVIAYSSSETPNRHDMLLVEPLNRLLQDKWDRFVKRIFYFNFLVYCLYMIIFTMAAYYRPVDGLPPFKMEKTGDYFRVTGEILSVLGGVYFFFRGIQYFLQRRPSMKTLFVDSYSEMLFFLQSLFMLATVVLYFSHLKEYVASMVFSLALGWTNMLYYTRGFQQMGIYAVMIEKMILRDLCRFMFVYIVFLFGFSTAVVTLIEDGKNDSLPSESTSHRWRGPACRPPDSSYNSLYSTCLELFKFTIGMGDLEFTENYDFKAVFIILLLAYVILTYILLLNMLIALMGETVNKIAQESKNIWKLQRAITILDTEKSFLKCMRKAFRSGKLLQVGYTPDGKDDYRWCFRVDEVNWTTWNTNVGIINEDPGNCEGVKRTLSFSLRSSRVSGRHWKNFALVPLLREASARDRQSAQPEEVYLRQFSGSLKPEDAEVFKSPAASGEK
Briefly: Capsaicin-induced Ca2+ influx in the human VR1-transfected CHO cell line (Assay 1). It counts as cell-based. The note with it: capsaicin-induced Ca2+ flux; compounds or the salt thereof (e.g., potassium salt); purity about 40 to 90%. From the text: [Measurement of Capsaicin-induced Ca^2+ Influx in the Human VR1-transfected CHO Cell Line] (Assay 1)
(1) Establishment of the human VR1-CHOluc9aeq cell line
Human vanilloid receptor (hVR1) cDNA was cloned from libraries of axotomized dorsal root ganglia (WO2000/29577). The cloned hVR1 cDNA was constructed with pcDNA3 vector and transfected into a CHOluc9aeq cell line. The cell line contains aequorin and CRE-luciferase reporter genes as read-out signals. The transfectants were cloned by limiting dilution in selection medium (DMEM/F12 medium (Gibco BRL) supplemented with 10% FCS, 1.4 mM Sodium pyruvate, 20 mM HEPES, 0.15% Sodium bicarbonate, 100 U/ml penicillin, 100 μ/ml streptomycin, 2 mM glutamine, non-essential amino acids and 2 mg/ml G418). Ca^2+ influx was examined in the capsaicin-stimulated clones. […] The human VR1-CHOluc9aeq cells were maintained in the selection medium and passaged every 3-4 days at 1-2.5×10^5 cells/flask ([…])
(2) Measurement of Ca^2+ influx using FDSS-3000
Human VR1-CHOluc9aeq cells were suspended in a culture medium which is the same as the selection medium except for G418 and seeded at a density of 1,000 cells per well into 384-well plates (black walled clear-base/Nalge Nunc International). Following the culture for 48 hrs the medium was changed to 2 μM Fluo-3 AM (Molecular Probes) and 0.02% Puronic F-127 in assay buffer (Hank's balanced salt solution (HBSS), 17 mM HEPES (pH7.4), 1 mM Probenecid, 0.1% BSA) and the cells were incubated for 60 min at 25° C. After washing twice with assay buffer the cells were incubated with a test compound or vehicle for 20 min at 25° C. Mobilization of cytoplasmic Ca^2+ was measured by FDSS-3000 (λex=488 nm, λem=540 nm/Hamamatsu Photonics) for 60 sec after the stimulation with 10 nM of capsaicin (Nacalai Tesque). Integral R of the fluorescence changes was calculated in the samples treated with a test compound and vehicle respectively. Inhibitory effect of the compound was calculated by a comparison of the integral R values.
(Calcium assays in cells follow changes in intracellular calcium, usually with a dye or a luminescent sensor.)
In general, IC50 refers to the concentration that gives 50% inhibition. Turning to `O=C(Nc1cccc(-c2ccccc2)c1)Nc1cccc2ccc(O)cc12` [N-(1,1′-biphenyl-3-yl)-N′-(7-hydroxy-1-naphthyl)urea], the IC50 was at most 0.01 µM. The same measure, in the same setting: under `O=C(Nc1ccc(Cl)c(C(F)(F)F)c1)Nc1c(Cl)ccc2ccc(O)cc12` [N-(2-chloro-7-hydroxy-1-naphthyl)-N′-[4-chloro-3-(trifluoromethyl)phenyl]urea] stands at most 0.01 µM. As for `O=C(Nc1ccc(Oc2ccccc2)cc1)Nc1cccc2ccc(O)cc12` [N-(7-hydroxy-1-naphthyl)-N′-(4-phenoxyphenyl)urea], the IC50 was at most 0.01 µM. On the same count and under the same terms, under `O=C(Nc1ccc(Oc2ccc(Cl)cc2)cc1)Nc1cccc2ccc(O)cc12` [N-[4-(4-chlorophenoxy)phenyl]-N′-(7-hydroxy-1-naphthyl)urea] stands at most 0.01 µM; under `O=C(Nc1ccc(Cl)c(C(F)(F)F)c1)Nc1c(Cl)cc(Cl)c2ccc(O)cc12` [N-[4-chloro-3-(trifluoromethyl)phenyl]-N′-(2,4-dichloro-7-hydroxy-1-naphthyl)urea], at most 0.01 µM; under `O=C(Nc1ccc(Cl)c(C(F)(F)F)c1)Nc1c(Cl)cc(Br)c2ccc(O)cc12` [N-(4bromo-2-chloro-7-hydroxy-1-naphthyl)N′-[4-chloro-3-(trifluoromethyl)phenyl]urea], at most 0.01 µM. Same read-out and setting: under `O=C(Nc1ccc(F)c(C(F)(F)F)c1)Nc1c(Cl)cc(Cl)c2ccc(O)cc12` [N-(2,4-dichloro-7-hydroxy-1-naphthyl)-N′-[4-fluoro-3-(trifluoromethyl)phenyl]urea] stands at most 0.01 µM; under `O=C(Nc1cccc(Oc2ccccc2)c1)Nc1cccc2ccc(O)cc12` [N-(7-hydroxy-1-naphthyl)-N′-(3-phenoxyphenyl)urea], at most 0.01 µM; under `O=C(Nc1ccc2ccccc2c1)Nc1c(Cl)cc(Cl)c2ccc(O)cc12` [N-(2,4-dichloro-7-hydroxy-1-naphthyl)-N′-(2-naphthyl)urea], at most 0.01 µM.

Regarding `O=C(Nc1ccc(C(F)(F)F)cc1)Nc1cccc2ccc(O)cc12` [N-(7-hydroxy-1-naphthyl)-N′-[4-(trifluoromethyl)phenyl]urea], the IC50 was at most 0.01 µM.

On to `CCOC(=O)c1cccc(NC(=O)Nc2c(Cl)cc(Cl)c3ccc(O)cc23)c1` [ethyl 3-({[(2,4-dichloro-7-hydroxy-1-naphthyl)amino]carbonyl}amino)benzoate], for which the IC50 is at most 0.01 µM. The same measure, in the same setting: under `O=C(Nc1cccc(Cl)c1)Nc1c(Br)cc(Br)c2ccc(O)cc12` [N-(3-chlorophenyl)-N′-(2,4-dibromo-7-hydroxy-1-naphthyl)urea] stands at most 0.01 µM; under `O=C(Nc1ccc(Cl)c(C(F)(F)F)c1)Nc1c(Br)cc(Br)c2ccc(O)cc12` [N-[4-chloro-3-(trifluoromethyl)phenyl]-N′-(2,4-dibromo-7-hydroxy-1-naphthyl)urea], at most 0.01 µM. Consider `Cc1cc(Cl)c(NC(=O)Nc2ccc(Cl)c(C(F)(F)F)c2)c2cc(O)ccc12` [N-(2-chloro-7-hydroxy-4-methyl-1-naphthyl)-N′-[4-chloro-3-(trifluoromethyl)phenyl]urea], for which the IC50 was at most 0.01 µM. The same measure, in the same setting: under `O=C(NCc1ccc(Br)cc1)Nc1c(Cl)ccc2ccc(O)cc12` [N-(4-bromobenzyl)-N′-(2-chloro-7-hydroxy-1-naphthyl)urea] stands at most 0.01 µM; under `O=C(Nc1cccc(-c2ccccc2Cl)c1)Nc1c(Cl)cc(Cl)c2ccc(O)cc12` [N-(2′-chloro-1,1′-biphenyl-3-yl)-N′-(2,4-dichloro-7-hydroxy-1-naphthyl)urea], at most 0.01 µM. In the case of `Cc1ccc(NC(=O)Nc2ccc(Cl)c(C(F)(F)F)c2)c2cc(O)ccc12` [N-[4-chloro-3-(trifluoromethyl)phenyl]-N′-(7-hydroxy-4-methyl-1-naphthyl)urea], the IC50 was at most 0.01 µM. As to `O=C(Nc1cccc(-c2ccccc2)c1)Nc1c(Cl)ccc2ccc(O)cc12` [N-(1,1′-biphenyl-3-yl)-N′-(2-chloro-7-hydroxy-1-naphthyl)urea], the IC50 is at most 0.01 µM. On the same count and under the same terms, under `O=C(Nc1cccc(C(F)(F)F)c1)Nc1c(Cl)cc(Cl)c2ccc(O)cc12` [N-(2,4-dichloro-7-hydroxy-1-naphthyl)-N′-[3-(trifluoromethyl)phenyl]urea] stands at most 0.01 µM.

System in another series: not given
Experiment: not given
Details: not given
The term melting point denotes the temperature, or range, at which the solid turns liquid. With `CCOC(=O)c1ccc(NC(=O)Nc2c(Cl)cc(Cl)c3ccc(O)cc23)cc1` [Example 1-13], the melting point is 258 to 260 °C.

`CC(=O)c1ccc(-c2cccc(NC(=O)Nc3c(Cl)cc(Cl)c4ccc(O)cc34)c2)cc1` [Example 4-10] displayed a melting point of 253 °C. For `O=C(Nc1cccc(-c2ccc(Cl)c(F)c2)c1)Nc1c(Cl)cc(Cl)c2ccc([O-])cc12.[K+]`, the melting point is 174 °C (dec.).

The compound `O=C(Nc1cccc(Cl)c1)Nc1c(Br)cc(Br)c2ccc(O)cc12` [Example 1-3] showed a melting point of 242 to 243 °C.

Take `Cc1ccc(NC(=O)Nc2c(Cl)cc(Cl)c3ccc(O)cc23)cc1C` [Example 4-12]: the melting point is 239 °C (dec.). Consider `O=C(NCc1ccc(Br)cc1)Nc1cccc2ccc([O-])c(F)c12.[K+]`, for which the melting point turned out to be 185 °C. Still for that read-out and setting: under `CN(C)c1ccc(NC(=O)Nc2c(Cl)cc(Cl)c3ccc(O)cc23)cc1` [Example 1-32] stands 192 °C (dec.); under `O=C(Nc1cccc(C(F)(F)F)c1)Nc1c(Br)cc(Br)c2ccc(O)cc12` [Example 1-27], 233 to 236 °C. Same read-out and setting: under `CC(=O)Nc1ccc2cccc(NC(=O)Nc3ccc(Cl)c(C(F)(F)F)c3)c2c1` [Example 9-1, N-{8-[({[4-Chloro-3-(trifluoromethyl)phenyl]amino}carbonyl)amino]-2-naphthyl}acetamide] stands 241 to 242 °C; under `CNc1ccc2cccc(NC(=O)Nc3ccc(Cl)c(C(F)(F)F)c3)c2c1` [Example 1-74], 218 to 219 °C. On the same count and under the same terms, under `O=C(Nc1ccc2c(c1)C(=O)OC2)Nc1c(Cl)cc(Cl)c2ccc(O)cc12` [Example 4-35] stands 290 to 291 °C (dec.); under `CNc1ccc2ccc(Cl)c(NC(=O)Nc3ccc(Cl)c(C(F)(F)F)c3)c2c1` [Example 1-77], 258 to 259 °C. In turn, `O=C(Nc1ccc2c(c1)C(=O)c1ccccc1-2)Nc1c(Cl)cc(Cl)c2ccc([O-])cc12.[K+]` gave a melting point of 200 °C.

Regarding `O=C(Nc1ccc(Cl)c(C(F)(F)F)c1)Nc1c(Cl)cc(Cl)c2ccc([O-])cc12.[K+]`, the melting point was 150 °C (dec.). As to `O=C(Nc1ccc(Cc2ccccc2)cc1)Nc1c(Cl)cc(Cl)c2ccc(O)cc12` [Example 4-14], the melting point is 230 °C (dec.). `O=C(Cc1cccc2ccc(O)cc12)Nc1ccc(Cl)c(C(F)(F)F)c1` [Example 11-1, N-[4-Chloro-3-(trifluoromethyl)phenyl]-2-(7-hydroxy-1-naphthyl)acetamide]: the melting point was 162 °C. The same measure, in the same setting: under `O=C(Nc1ccc(N2CCOCC2)c(Cl)c1)Nc1c(Cl)cc(Cl)c2ccc([O-])cc12.[K+]` stands 188 °C; under `O=C(Nc1ccc(Cl)cc1)Nc1c(Br)cc(Br)c2ccc(O)cc12` [Example 1-26], 229 to 233 °C; under `O=C(Nc1ccc2ccccc2c1)Nc1cccc2ccc(O)c(F)c12` [Example 1-53], 189 °C. Take `O=C(Nc1ccc(Cl)c(C(F)(F)F)c1)Nc1cccc2ccc(NCc3ccccc3)cc12` [Example 1-75]: the melting point was 193 to 194 °C.

`COc1cccc(NC(=O)Nc2c(Cl)cc(Cl)c3ccc(O)cc23)c1` [Example 1-11] registered a melting point of 223 to 226 °C.

As for `Cc1cc(Cl)c(NC(=O)Nc2ccc(Cl)c(C(F)(F)F)c2)c2cc(O)ccc12` [Example 1-83], the melting point turned out to be 254 °C. On to `CC(=O)Oc1ccc2c(Br)cc(Br)c(NC(=O)Nc3cccc(-c4ccccc4)c3)c2c1` [Example 3-2], for which the melting point is 235 °C (dec.). On to `O=C(Nc1ccc(Cl)c(C(F)(F)F)c1)Nc1ccc(Br)c2ccc(O)cc12` [Example 1-72], for which the melting point stood at 211 °C.

With `O=C(Nc1cccc2c1C(=O)c1ccccc1-2)Nc1c(Cl)cc(Cl)c2ccc([O-])cc12.[K+]`, the melting point is 195 °C.
